In ChEMBL document CHEMBL3774333, “Identification of SNAIL1 Peptide-Based Irreversible Lysine-Specific Demethylase 1-Selective Inactivators” (J Med Chem, 2016):
Active and inactive are the calls of the source. No cut-off for these calls is given here. *1 amine or outer side, *2 acyl side, *3 side chain or, on linkers, in order; H or OH if unused. Where a SMILES comes first, the peptide text is derived from it. [ ]: non-standard residue; d: D form. X2 = CNNCCC[C@H](N[*:1])C(=O)[*:2]

Experiments:
[1] = target: T1, Lysine-specific histone demethylase 1A (Homo sapiens, UniProt O60341); test: biochemical
Description: Inhibition of full length N-terminal His-tagged human recombinant LSD1 (1 to 852 residues) expressed in Escherichia coli BL21(DE3) cells using H3K4me2 peptide as substrate preincubated for 5 mins followed by substrate addition measured for 30 mins by peroxidase coupled assay

[2] = target: T2, Lysine-specific demethylase 5A (Homo sapiens, UniProt P29375)
T2 sequence (P29375 whole entry): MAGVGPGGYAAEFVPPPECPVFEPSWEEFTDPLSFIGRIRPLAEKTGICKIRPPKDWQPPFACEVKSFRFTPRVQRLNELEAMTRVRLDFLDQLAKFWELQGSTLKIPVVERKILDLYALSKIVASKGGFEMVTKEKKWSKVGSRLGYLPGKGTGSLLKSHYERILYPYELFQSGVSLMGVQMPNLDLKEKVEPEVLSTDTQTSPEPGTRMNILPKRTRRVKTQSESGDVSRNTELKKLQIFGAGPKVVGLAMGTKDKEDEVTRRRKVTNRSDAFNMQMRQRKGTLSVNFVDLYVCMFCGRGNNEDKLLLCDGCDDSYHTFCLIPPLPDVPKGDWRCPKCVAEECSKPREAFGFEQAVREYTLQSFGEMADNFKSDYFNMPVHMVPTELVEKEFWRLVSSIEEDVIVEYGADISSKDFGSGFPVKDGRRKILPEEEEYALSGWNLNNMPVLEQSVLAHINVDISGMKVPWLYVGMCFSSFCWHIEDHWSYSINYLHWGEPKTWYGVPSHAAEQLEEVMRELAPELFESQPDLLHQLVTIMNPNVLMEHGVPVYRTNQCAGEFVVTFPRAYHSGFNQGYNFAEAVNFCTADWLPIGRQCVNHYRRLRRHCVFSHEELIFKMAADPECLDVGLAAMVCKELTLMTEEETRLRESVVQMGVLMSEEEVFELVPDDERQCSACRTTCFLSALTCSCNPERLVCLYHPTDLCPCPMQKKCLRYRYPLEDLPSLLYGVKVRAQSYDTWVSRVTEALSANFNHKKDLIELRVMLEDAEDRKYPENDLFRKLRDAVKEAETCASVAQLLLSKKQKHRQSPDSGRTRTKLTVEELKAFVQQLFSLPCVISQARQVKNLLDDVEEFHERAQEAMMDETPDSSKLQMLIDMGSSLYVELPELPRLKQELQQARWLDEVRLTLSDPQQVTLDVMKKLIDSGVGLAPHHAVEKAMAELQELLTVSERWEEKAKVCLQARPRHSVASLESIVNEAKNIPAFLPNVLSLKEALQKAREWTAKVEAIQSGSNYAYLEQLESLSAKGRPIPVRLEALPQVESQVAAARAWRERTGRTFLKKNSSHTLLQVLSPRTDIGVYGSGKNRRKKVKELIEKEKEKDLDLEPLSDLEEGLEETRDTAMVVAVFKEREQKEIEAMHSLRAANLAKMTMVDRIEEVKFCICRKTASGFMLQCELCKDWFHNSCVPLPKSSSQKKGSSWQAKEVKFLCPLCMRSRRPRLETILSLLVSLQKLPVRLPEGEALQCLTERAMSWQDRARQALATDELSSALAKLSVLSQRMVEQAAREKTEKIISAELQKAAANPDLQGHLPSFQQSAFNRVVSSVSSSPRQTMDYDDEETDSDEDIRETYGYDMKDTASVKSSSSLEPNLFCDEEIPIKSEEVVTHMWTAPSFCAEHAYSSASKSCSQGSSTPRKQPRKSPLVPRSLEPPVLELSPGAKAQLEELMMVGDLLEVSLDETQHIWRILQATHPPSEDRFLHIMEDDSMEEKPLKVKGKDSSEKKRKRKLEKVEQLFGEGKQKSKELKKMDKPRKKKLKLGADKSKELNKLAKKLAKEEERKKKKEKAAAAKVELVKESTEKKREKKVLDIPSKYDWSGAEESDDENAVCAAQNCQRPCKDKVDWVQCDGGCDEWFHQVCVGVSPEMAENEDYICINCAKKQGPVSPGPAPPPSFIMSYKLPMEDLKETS
Description: Inhibition of JARID1A (unknown origin) using H3K4me3 peptide substrate preincubated for 5 mins followed by substrate addition by MALDI-TOF mass spectrometric analysis

[3] = target: T3, Amine oxidase [flavin-containing] B (Homo sapiens, UniProt P27338); test: biochemical
T3 sequence (P27338 whole entry): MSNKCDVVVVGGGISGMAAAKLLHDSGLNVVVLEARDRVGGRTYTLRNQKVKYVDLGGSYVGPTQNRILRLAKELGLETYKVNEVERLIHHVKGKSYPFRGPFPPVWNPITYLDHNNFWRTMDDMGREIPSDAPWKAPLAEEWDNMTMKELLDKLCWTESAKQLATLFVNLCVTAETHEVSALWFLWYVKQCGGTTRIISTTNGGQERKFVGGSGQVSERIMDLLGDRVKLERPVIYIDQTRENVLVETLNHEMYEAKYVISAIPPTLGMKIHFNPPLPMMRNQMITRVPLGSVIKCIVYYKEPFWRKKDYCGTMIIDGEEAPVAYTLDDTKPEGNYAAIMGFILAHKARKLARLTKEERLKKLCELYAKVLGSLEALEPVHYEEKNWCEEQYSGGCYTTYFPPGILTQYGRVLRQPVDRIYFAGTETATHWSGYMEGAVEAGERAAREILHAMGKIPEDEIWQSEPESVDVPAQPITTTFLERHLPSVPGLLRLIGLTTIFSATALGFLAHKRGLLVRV
Description: Inhibition of human recombinant MAO-B expressed in baculovirus infected BTI insect cells using (4S)-4,5-dihydro-2-(6-hydroxybenzothiazolyl)-4-thiazolecarboxylic acid as substrate incubated for 60 mins by MAO-Glo assay

[4] = target: T4, Amine oxidase [flavin-containing] A (Homo sapiens, UniProt P21397); test: biochemical
T4 sequence (P21397 whole entry): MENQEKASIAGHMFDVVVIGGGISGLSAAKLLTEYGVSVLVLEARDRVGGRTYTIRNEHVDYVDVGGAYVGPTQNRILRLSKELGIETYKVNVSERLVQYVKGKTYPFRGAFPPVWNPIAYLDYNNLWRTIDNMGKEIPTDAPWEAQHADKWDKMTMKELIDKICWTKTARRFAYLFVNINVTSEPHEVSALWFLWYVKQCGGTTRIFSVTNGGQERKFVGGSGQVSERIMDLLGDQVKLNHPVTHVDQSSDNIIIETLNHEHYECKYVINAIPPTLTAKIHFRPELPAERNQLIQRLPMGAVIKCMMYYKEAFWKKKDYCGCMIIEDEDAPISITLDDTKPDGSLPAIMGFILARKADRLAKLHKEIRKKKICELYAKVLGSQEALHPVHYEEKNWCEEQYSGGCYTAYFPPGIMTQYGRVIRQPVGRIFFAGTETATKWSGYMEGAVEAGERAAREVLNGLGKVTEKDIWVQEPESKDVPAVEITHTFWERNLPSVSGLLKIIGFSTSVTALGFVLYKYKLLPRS
Description: Inhibition of human recombinant MAO-A expressed in baculovirus infected BTI insect cells using (4S)-4,5-dihydro-2-(6-hydroxybenzothiazolyl)-4-thiazolecarboxylic acid as substrate incubated for 60 mins by MAO-Glo assay

[5] = target: T1, Lysine-specific histone demethylase 1A; test: Drug metabolism assessed as LSD1 (unknown origin)-mediated compound-FAD adduct formation after 22 hrs by MALDI-TOF mass spectrometric analysis in presence of excess of H3K4me2 substrate peptide; assay type: ADME
[6] = target: T5, Lysine-specific histone demethylase 2 (Homo sapiens, UniProt Q8NB78); test: biochemical
T5 sequence (Q8NB78 whole entry): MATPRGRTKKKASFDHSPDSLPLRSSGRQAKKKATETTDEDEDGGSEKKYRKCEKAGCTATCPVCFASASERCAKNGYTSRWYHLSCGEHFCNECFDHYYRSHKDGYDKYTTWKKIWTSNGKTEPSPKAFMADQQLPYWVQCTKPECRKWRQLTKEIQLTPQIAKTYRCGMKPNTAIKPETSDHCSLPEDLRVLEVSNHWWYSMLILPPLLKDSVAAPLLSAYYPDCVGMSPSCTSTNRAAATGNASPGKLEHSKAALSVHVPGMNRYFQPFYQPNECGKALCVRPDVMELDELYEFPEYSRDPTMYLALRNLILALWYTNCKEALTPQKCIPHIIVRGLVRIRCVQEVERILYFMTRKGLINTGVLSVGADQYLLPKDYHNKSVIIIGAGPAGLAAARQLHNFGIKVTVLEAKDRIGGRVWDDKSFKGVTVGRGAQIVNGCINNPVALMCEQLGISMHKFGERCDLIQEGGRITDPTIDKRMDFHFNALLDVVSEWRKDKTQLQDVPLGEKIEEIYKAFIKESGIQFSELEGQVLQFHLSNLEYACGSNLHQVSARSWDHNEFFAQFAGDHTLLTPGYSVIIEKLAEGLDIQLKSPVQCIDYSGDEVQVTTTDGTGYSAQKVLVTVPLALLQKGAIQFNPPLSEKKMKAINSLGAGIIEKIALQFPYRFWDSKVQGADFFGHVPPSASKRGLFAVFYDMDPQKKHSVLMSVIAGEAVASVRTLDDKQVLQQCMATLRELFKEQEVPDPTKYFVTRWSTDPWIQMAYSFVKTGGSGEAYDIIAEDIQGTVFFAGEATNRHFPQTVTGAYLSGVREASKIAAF
Description: Inhibition of full length N-terminal His-tagged human LSD2 (1 to 822 residues) expressed in Escherichia coli BL21(DE3) cells using H3K4me2 peptide substrate by MALDI-TOF mass spectrometric analysis

[7] = target: T1, Lysine-specific histone demethylase 1A; test: Drug metabolism assessed as LSD1 (unknown origin)-mediated demethylation of compound by measuring (3S,6S,9S,12S)-1-((S)-1-((S)-6-amino-2-((S)-2-((S)-4-amino-2-((S)-1-((S)-3-carboxy-2-((S)-2-((S)-1-((6S,9S,12S,15S,18S,21S,24S)-1,28-diamino-21-(3-guanidinopropyl)-12-(3-hydrazinylpropyl)-9-(hydroxymethyl)-1-imino-15-isobutyl-18-isopropyl-7,10,13,16,19,22-hexaoxo-6-((S)-pyrrolidine-2-carboxamido)-2,8,11,14,17,20,23-heptaazaoctacosanecarbonyl)pyrrolidine-2-carboxamido)-3-hydroxypropanamido)propanoyl)pyrrolidine-2-carboxamido)-4-oxobutanamido)-5-guanidinopentanamido)hexanoyl)pyrrolidin-2-yl)-3-(2-amino-2-oxoethyl)-12-carbamoyl-6-(4-hydroxybenzyl)-9-(hydroxymethyl)-1,4,7,10-tetraoxo-2,5,8,11-tetraazapentadecan-15-oic acid level after 22 hrs by MALDI-TOF mass spectrometric analysis; assay type: ADME
HeLa [8] = test: Antiproliferative activity against human HeLa cells assessed as reduction in cell viability at 100 uM treated for 24 hrs measured after 48 hrs by alamar blue assay in absence of fetal bovine serum; assay type: functional, cell-based
HeLa [9] = test: Antiproliferative activity against human HeLa cells assessed as reduction in cell viability at 300 uM treated for 24 hrs measured after 48 hrs by alamar blue assay in absence of fetal bovine serum relative to control; assay type: functional
[10] = target: T1, Lysine-specific histone demethylase 1A; test: Inhibition of LSD1 in human HeLa cells assessed as H3K4me2/H3 ratio at 20 uM after 24 hrs by Western blot analysis in absence of fetal bovine serum; assay type: cell-based
[11] = target: T1, Lysine-specific histone demethylase 1A; test: Inhibition of LSD1 in human HeLa cells assessed as increase in H3K4me2 level after 24 hrs by Western blot analysis in absence of fetal bovine serum; assay type: cell-based
Homo sapiens [12] = organism: Homo sapiens
HeLa [13] = test: Antiproliferative activity against human HeLa cells assessed as reduction in cell viability at 25 to 100 uM treated for 24 hrs measured after 48 hrs by alamar blue assay in absence of fetal bovine serum; assay type: functional, cell-based
[14] = target: T2, Lysine-specific demethylase 5A; test: Inhibition of JARID1A in human HeLa cells assessed as H3K4me3/H3 ratio at 5 uM after 24 hrs by Western blot analysis in absence of fetal bovine serum; assay type: cell-based
[15] = target: T2, Lysine-specific demethylase 5A; test: Inhibition of JARID1A in human HeLa cells assessed as H3K4me3/H3 ratio at 10 uM after 24 hrs by Western blot analysis in absence of fetal bovine serum; assay type: cell-based
[16] = target: T1, Lysine-specific histone demethylase 1A; test: Inhibition of LSD1 in human HeLa cells assessed as H3K4me2/H3 ratio at 10 uM after 24 hrs by Western blot analysis in absence of fetal bovine serum; assay type: cell-based
[17] = target: T6, Lysine-specific histone demethylase 2 (Homo sapiens) (UniProt Q8NB78); test: Inhibition of LSD2 in human HeLa cells assessed as H3K4me1/H3 ratio at 10 uM after 24 hrs by Western blot analysis in absence of fetal bovine serum; assay type: cell-based
T6 sequence (whole entry): T5 sequence (Q8NB78 whole entry)

Homo sapiens [18] = organism: Homo sapiens; remark: listed apart in the source
[19] = target: T2, Lysine-specific demethylase 5A; test: Inhibition of JARID1A in human HeLa cells assessed as H3K4me3/H3 ratio at 20 uM after 24 hrs by Western blot analysis in absence of fetal bovine serum; assay type: cell-based
Homo sapiens [20] = organism: Homo sapiens; remark: listed apart in the source
Homo sapiens [21] = organism: Homo sapiens; remark: listed apart in the source
[22] = target: T1, Lysine-specific histone demethylase 1A; test: Inhibition of LSD1 in human HeLa cells assessed as H3K4me2/H3 ratio at 5 uM after 24 hrs by Western blot analysis in absence of fetal bovine serum; assay type: cell-based
[23] = target: T6, Lysine-specific histone demethylase 2 (Homo sapiens); test: Inhibition of LSD2 in human HeLa cells assessed as H3K4me1/H3 ratio at 5 uM after 24 hrs by Western blot analysis in absence of fetal bovine serum; assay type: cell-based
[24] = target: T1, Lysine-specific histone demethylase 1A; conditions: 22 h
[25] = target: T6, Lysine-specific histone demethylase 2 (Homo sapiens); test: Inhibition of LSD2 in human HeLa cells assessed as H3K4me1/H3 ratio at 20 uM after 24 hrs by Western blot analysis in absence of fetal bovine serum; assay type: cell-based

CC(C)C[C@H](NC(=O)[C@H](CCCNN)NC(=O)[C@H](CO)NC(=O)[C@H](CCCNC(=N)N)NC(=O)[C@@H]1CCCN1)C(=O)N[C@H](C(=O)N[C@@H](CCCNC(=N)N)C(=O)N[C@@H](CCCCN)C(=O)N1CCC[C@H]1C(=O)N[C@@H](CO)C(=O)N[C@@H](CC(=O)O)C(=O)N1CCC[C@H]1C(=O)N[C@@H](CC(N)=O)C(=O)N[C@@H](CCCNC(=N)N)C(=O)N[C@@H](CCCCN)C(=O)N1CCC[C@H]1C(=O)N[C@@H](CC(N)=O)C(=O)N[C@@H](Cc1ccc(O)cc1)C(=O)N[C@@H](CO)C(=O)N[C@@H](CCC(N)=O)C(N)=O)C(C)C
IC50 [1]: 0.44 µM | IC50 [2]: > 50 µM | IC50 [3]: > 30 µM | IC50 [4]: > 30 µM | Drug metabolism [5]: metabolite_notdetected | IC50 [6]: > 50 µM

CNNCCC[C@H](NC(=O)[C@H](CO)NC(=O)[C@H](CCCNC(=N)N)NC(=O)[C@@H]1CCCN1)C(=O)N[C@@H](CC(C)C)C(=O)N[C@H](C(=O)N[C@@H](CCCNC(=N)N)C(=O)N[C@@H](CCCCN)C(=O)N1CCC[C@H]1C(=O)N[C@@H](CO)C(=O)N[C@@H](CC(=O)O)C(=O)N1CCC[C@H]1C(=O)N[C@@H](CC(N)=O)C(=O)N[C@@H](CCCNC(=N)N)C(=O)N[C@@H](CCCCN)C(=O)N1CCC[C@H]1C(=O)N[C@@H](CC(N)=O)C(=O)N[C@@H](Cc1ccc(O)cc1)C(=O)N[C@@H](CO)C(=O)N[C@@H](CCC(N)=O)C(N)=O)C(C)C (H-PRS[X2]LVRKPSDPNRKPNYSQ-NH2)
IC50 [1]: 8.4 µM | IC50 [2]: > 50 µM | IC50 [3]: > 30 µM | Drug metabolism [7]: metabolite_detected | IC50 [4]: > 30 µM | IC50 [6]: > 50 µM

O=C(O)c1ccc(CN2CCC(CN[C@H]3C[C@@H]3c3ccccc3)CC2)cc1
Activity (HeLa [8]): inactive | IC50 [1]: 0.61 µM | Activity (HeLa [9]): 9.96% | Ratio [10]: 2.03

CC(C)C[C@H](NC(=O)[C@H](CCCNN)NC(=O)[C@H](CO)NC(=O)[C@@H](CCCNC(=N)N)NC(=O)[C@H]1CCCN1)C(=O)N[C@H](C(=O)N[C@@H](CCCNC(=N)N)C(=O)N[C@@H](CCCCNC(=O)[C@@H](CCCNC(=N)N)NC(=O)[C@@H](CCCNC(=N)N)NC(=O)[C@@H](CCCNC(=N)N)NC(=O)[C@@H](CCCNC(=N)N)NC(=O)[C@@H](CCCNC(=N)N)NC(=O)[C@@H](CCCNC(=N)N)NC(=O)[C@@H](CCCNC(=N)N)NC(=O)[C@@H](N)CCCNC(=N)N)C(=O)N1CCC[C@H]1C(=O)N[C@@H](CO)C(=O)N[C@@H](CC(=O)O)C(=O)N1CCC[C@H]1C(=O)N[C@@H](CC(N)=O)C(=O)N[C@@H](CCCNC(=N)N)C(=O)N[C@@H](CCCCN)C(=O)N1CCC[C@H]1C(=O)N[C@H](CC(N)=O)C(=O)N[C@@H](Cc1ccc(O)cc1)C(=O)N[C@@H](CO)C(=O)N[C@@H](CCC(N)=O)C(N)=O)C(C)C
inhibition [11]: Dose-dependent effect | Ratio IC50 (Homo sapiens [12]): > 94 | Activity (HeLa [13]): Active | Ratio [14]: 1.04 | IC50 [1]: 0.28 µM | IC50 [2]: 6.74 µM | IC50 [3]: 29 µM | Ratio [15]: 0.95 | Ratio [16]: 1.9 | Ratio [17]: 0.98 | Ratio IC50 (Homo sapiens [18]): 94 | Ratio [19]: 0.98 | IC50 [4]: > 30 µM | Ratio IC50 (Homo sapiens [20]): 23 | Ratio IC50 (Homo sapiens [21]): 16 | Ratio [22]: 1.72 | Ratio [23]: 1.01 | Drug metabolism [24]: metabolite_detected | Ratio [10]: 2.19 | Ratio [25]: 1.08 | IC50 [6]: 13.2 µM
